Experimental data published in US6627628B1, “Substituted 4-amino-2-aryl-cyclopenta[d]pyrimidines, their production and use and pharmaceutical preparations containing same” (Aventis Pharma Deutschland, GmbH, priority 1998, dated 2003).

How the values were obtained:
[1] = molecular target: T1, soluble guanylate cyclase (sGC) (Bos taurus, UniProt P16068+P19687); experiment: Activation of soluble guanylate cyclase (cGMP enzyme immunoassay); type: biochemical; settings: sGC isolated from bovine lung; test substance 50 μM; 5% DMSO; 37° C., 15 to 20 minutes; [cGMP]test substance/[cGMP]control (basal enzyme activity)
T1 construct: The sGC employed had been isolated from bovine lung; from tissue; host or cells: bovine lung
T1 sequence (P19687 1-691): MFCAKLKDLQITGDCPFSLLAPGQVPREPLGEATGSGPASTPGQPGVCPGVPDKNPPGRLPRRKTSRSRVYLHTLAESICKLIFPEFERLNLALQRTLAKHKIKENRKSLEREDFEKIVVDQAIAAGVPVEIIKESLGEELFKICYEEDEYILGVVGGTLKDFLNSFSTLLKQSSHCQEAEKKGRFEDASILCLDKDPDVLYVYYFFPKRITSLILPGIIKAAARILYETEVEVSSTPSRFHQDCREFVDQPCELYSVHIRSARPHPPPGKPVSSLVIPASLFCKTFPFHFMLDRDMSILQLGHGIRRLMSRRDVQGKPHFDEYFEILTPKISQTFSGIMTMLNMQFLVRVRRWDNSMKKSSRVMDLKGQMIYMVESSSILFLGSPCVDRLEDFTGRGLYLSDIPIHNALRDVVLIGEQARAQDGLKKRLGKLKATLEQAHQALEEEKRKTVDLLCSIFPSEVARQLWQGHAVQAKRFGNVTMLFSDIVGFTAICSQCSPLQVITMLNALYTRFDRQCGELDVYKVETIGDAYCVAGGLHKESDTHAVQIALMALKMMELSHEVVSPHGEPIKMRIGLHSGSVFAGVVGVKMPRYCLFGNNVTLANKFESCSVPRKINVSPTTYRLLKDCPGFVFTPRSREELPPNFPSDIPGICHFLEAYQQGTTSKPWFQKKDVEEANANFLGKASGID
T1 sequence (P16068 1-619): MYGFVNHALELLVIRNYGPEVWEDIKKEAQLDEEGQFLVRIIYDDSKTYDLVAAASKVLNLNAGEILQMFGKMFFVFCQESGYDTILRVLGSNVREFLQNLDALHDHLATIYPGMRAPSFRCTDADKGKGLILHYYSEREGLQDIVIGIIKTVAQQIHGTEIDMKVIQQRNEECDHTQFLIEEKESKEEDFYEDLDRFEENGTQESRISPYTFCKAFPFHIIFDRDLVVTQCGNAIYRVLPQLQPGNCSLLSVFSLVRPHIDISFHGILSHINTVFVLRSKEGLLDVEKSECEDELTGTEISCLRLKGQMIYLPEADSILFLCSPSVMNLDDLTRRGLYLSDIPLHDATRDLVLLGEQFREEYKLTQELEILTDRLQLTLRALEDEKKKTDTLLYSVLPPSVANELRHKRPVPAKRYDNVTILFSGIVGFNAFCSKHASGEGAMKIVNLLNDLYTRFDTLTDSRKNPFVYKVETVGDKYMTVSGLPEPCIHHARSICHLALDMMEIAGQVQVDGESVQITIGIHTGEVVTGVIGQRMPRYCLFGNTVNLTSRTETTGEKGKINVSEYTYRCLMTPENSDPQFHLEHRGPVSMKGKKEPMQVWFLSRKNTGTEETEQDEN
Experimental: Activation of Soluble Guanylate Cyclase
The activation of soluble guanylate cyclase (sGC), which catalyzes the conversion of guanosine triphosphate (GTP) to cyclic guanosine monophosphate (cGMP) and pyrophosphate, by the compounds according to the invention was quantified with the aid of an enzyme immunoassay (EIA) from Amersham. For this, the test substances were first incubated with sGC in microtiter plates and then the quantity of the resulting cGMP was determined.
The test solutions (100 μl per well) contained 50 mM triethanolamine (TEA) buffer (pH 7.5), 3 mM MgCl2, 3 mM reduced glutathione (GSH), 0.1 mM GTP, 1 mM 3-isobutyl-1-methylxanthine (IBMX), suitably diluted enzyme solution and the test substance or, in the control experiments, solvent. The test substances were dissolved in dimethyl sulfoxide (DMSO) and the solution was diluted with DMSO/water such that the final concentration c of test substance in the test batch was 50 μM. The DMSO concentration in the test batch was 5% (v/v). The reaction was started by addition of the sGC. The reaction mix was incubated at 37° C. for 15 to 20 minutes and then stopped by ice-cooling and addition of the stop reagent (50 mM EDTA, pH 8.0). An aliquot of 50 μl was taken and employed for the determination of the cGMP content using the acetylation protocol of the Amersham cGMP EIA kit. The absorption of the samples was measured at 450 nm (reference wavelength 620 nm) in a microtiter plate reading apparatus. The cGMP concentration was determined by means of a calibration curve, which was obtained under the same experimental conditions.
n-fold stimulation=[cGMP]test substance/[cGMP]control.

n-fold stimulation at c = 50 μM [1] [fold]	melting point [°C]	Compound
6	185	CCN(CC)c1nc(-c2cccc(Cl)c2)nc2c1CCC2.Cl [Example 25, 2-(3-Chlorophenyl)-4-diethylamino-6,7-dihydro-5H-cyclopenta[d]pyrimidine hydrochloride]
5	185	CCN(CC)c1nc(-c2ccc(Cl)cc2)nc2c1CCC2.Cl [Example 26, 2-(4-Chlorophenyl)-4-diethylamino-6,7-dihydro-5H-cyclopenta[d]pyrimidine hydrochloride]
6	121	CCCCNc1nc(-c2ccc(Cl)cc2)nc2c1CCC2 [Example 30, 2-(4-Chlorophenyl)-4-butylamino-6,7-dihydro-5H-cyclopenta[d]pyrimidine]
7	114	CCCN(CCC)c1nc(-c2ccc(Cl)cc2)nc2c1CCC2 [Example 35, 2-(4-Chlorophenyl)-4-dipropylamino-6,7-dihydro-5H-cyclopenta[d]pyrimidine]
8	133	CCCCNc1nc(-c2ccc(C)cc2)nc2c1CCC2 [Example 40, 2-(4-Methylphenyl)-4-butylamino-6,7-dihydro-5H-cyclopenta[d]pyrimidine]
9	183	Cc1ccc(-c2nc3c(c(NC4CCCC4)n2)CCC3)cc1 [Example 41, 2-(4-Methylphenyl)-4-cyclopentylamino-6,7-dihydro-5H-cyclopenta[d]pyrimidine]
10	163	Cc1ccc(-c2nc3c(c(NC4CCCCC4)n2)CCC3)cc1 [Example 42, 2-(4-Methylphenyl)-4-cyclohexylamino-6,7-dihydro-5H-cyclopenta[d]pyrimidine]
7	117	CCCN(CCC)c1nc(-c2ccc(C)cc2)nc2c1CCC2 [Example 45, 2-(4-Methylphenyl)-4-dipropylamino-6,7-dihydro-5H-cyclopenta[d]pyrimidine]

More lines, now with the values behind:

Compound	n-fold stimulation at c = 50 μM [1] [fold]	melting point [°C]
Clc1ccc(-c2nc3c(c(NC4CCCC4)n2)CCC3)cc1 [Example 15, 2-(4-Chlorophenyl)-4-cyclopentylamino-6,7-dihydro-5H-cyclopenta[d]pyrimidine]	7	
CS(=O)(=O)O.O[C@H]1CC[C@H](Nc2nc(-c3cc(Cl)cc(Cl)c3)nc3c2CCC3)CC1 [Example 16, 2-(3,5-Dichlorophenyl)-4-(trans-4-hydroxycyclohexylamino)-6,7-dihydro-5H-cyclopenta[d]pyrimidine methanesulfonic acid salt]	34	
Clc1cccc(-c2nc3c(c(NC4CCCC4)n2)CCC3)c1 [Example 32, 2-(3-Chlorophenyl)-4-cyclopentylamino-6,7-dihydro-5H-cyclopenta[d]pyrimidine]	15	129
CCCCNc1nc(-c2cccc(Cl)c2)nc2c1CCC2 [Example 33, 2-(3-Chlorophenyl)-4-butylamino-6,7-dihydro-5H-cyclopenta[d]pyrimidine]	5	
O[C@H]1CC[C@H](Nc2nc(-c3ccc(Cl)cc3)nc3c2CCC3)CC1 [Example 34, 2-(4-Chlorophenyl)-4-(trans-4-hydroxycyclohexylamino)-6,7-dihydro-5H-cyclopenta[d]pyrimidine]	35	216
Cc1ccc(-c2nc3c(c(N[C@H]4CC[C@H](O)CC4)n2)CCC3)cc1 [Example 43, 2-(4-Methylphenyl)-4-(trans-4-hydroxycyclohexylamino)-6,7-dihydro-5H-cyclopenta[d]pyrimidine]	23	191
OCCCCNc1nc(-c2cc(Cl)cc(Cl)c2)nc2c1CCC2 [Example 48, 2-(3,5-Dichlorophenyl)-4-(4-hydroxybutylamino)-6,7-dihydro-5H-cyclopenta[d]-pyrimidine]	9	142
CCCCNc1nc(-c2cc(Cl)cc(Cl)c2)nc2c1CCC2 [Example 49, 2-(3,5-Dichlorophenyl)-4-butylamino-6,7-dihydro-5H-cyclopenta[d]pyrimidine]	5	93
Clc1cc(Cl)cc(-c2nc3c(c(NC4CCCC4)n2)CCC3)c1 [Example 50, 2-(3,5-Dichlorophenyl)-4-cyclopentylamino-6,7-dihydro-5H-cyclopenta[d]-pyrimidine]	8	153
